# Laboratory results from US20260262643A1, “HERBICIDAL BENZOXAZINES” (FMC CORPORATION, priority 2022, published 2026).
# Experiments:
# ryegrass, Italian [1] = test: Test C postemergence; assay type: in vivo, Lolium multiflorum; conditions: 125 g ai/ha, postemergence, 10 days; 0 to 100 scale, 0 no effect, 100 complete control
# Procedure, shortened: (§1)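 Visual injury ratings on a 0–100 scale (100 = complete control) were made against untreated controls 10 days after treatment in the greenhouse. Compounds, formulated with surfactant in non-phytotoxic solvent, were sprayed on soil preemergence or onto one- to two-leaf plants 2–10 cm tall postemergence.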
# ducksalad = test: Test D flooded paddy test; assay type: in vivo, Heteranthera limosa; conditions: 250 g ai/ha, applied to paddy water, visual rating after 13 to 14 days, scale 0 to 100 (0 no effect, 100 complete control)
# Procedure, shortened: (§2)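 Seedlings reached the 2-leaf stage, then pots were flooded to 3 cm over the soil surface. Compound was applied into the water, depth was maintained, and plants stayed in the greenhouse 13 to 14 days before visual scoring (0–100) relative to controls.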
# wheat [2] = test: Test C preemergence; assay type: in vivo, Triticum aestivum; conditions: preemergence, 0 to 100 scale (0 no effect, 100 complete control)
# Procedure, shortened: as §1
# galium = test: Test C postemergence; assay type: in vivo, Galium aparine; conditions: 10 days
# Procedure, shortened: as §1
# pigweed, palmer [3] = test: Test C postemergence; assay type: in vivo, Amaranthus palmeri; conditions: 125 g ai/ha, postemergence, 10 days; 0 to 100 scale, 0 no effect, 100 complete control
# Procedure, shortened: as §1
# sedge, umbrella = test: Test D flooded paddy test; assay type: in vivo, Cyperus difformis; conditions: 250 g ai/ha, applied to paddy water, visual rating after 13 to 14 days, scale 0 to 100 (0 no effect, 100 complete control)
# Procedure, shortened: as §2
# green foxtail [4] = test: Test C postemergence; assay type: in vivo, Setaria viridis; conditions: 10 days
# Procedure, shortened: as §1
# oat, wild [5] = test: Test C preemergence; assay type: in vivo, Avena fatua; conditions: preemergence, 0 to 100 scale (0 no effect, 100 complete control)
# Procedure, shortened: as §1
# corn [6] = test: Test C preemergence; assay type: in vivo, Zea mays; conditions: preemergence, 0 to 100 scale (0 no effect, 100 complete control)
# Procedure, shortened: as §1
# soybean [7] = test: Test C postemergence; assay type: in vivo, Glycine max; conditions: 125 g ai/ha, postemergence, 10 days; 0 to 100 scale, 0 no effect, 100 complete control
# Procedure, shortened: as §1
# horseweed = test: Test C postemergence; assay type: in vivo, Erigeron canadensis; conditions: 10 days
# Procedure, shortened: as §1
# pigweed, palmer [8] = test: Test C preemergence; assay type: in vivo, Amaranthus palmeri; conditions: preemergence, 0 to 100 scale (0 no effect, 100 complete control)
# Procedure, shortened: as §1
# kochia [9] = test: Test C preemergence; assay type: in vivo, Bassia scoparia; conditions: preemergence, 0 to 100 scale (0 no effect, 100 complete control)
# Procedure, shortened: as §1
# blackgrass [10] = test: Test C preemergence; assay type: in vivo, Alopecurus myosuroides; conditions: 0 to 100 scale (0 no effect, 100 complete control); for Plant response rating, Blackgrass: Preemergence, 500 g ai/ha, visual rating after 10 days; for Blackgrass plant response rating: Test C, preemergence, 125 g ai/ha
# Procedure, shortened: as §1
# green foxtail [11] = test: Test C preemergence; assay type: in vivo, Setaria viridis; conditions: preemergence, 0 to 100 scale (0 no effect, 100 complete control)
# Procedure, shortened: as §1
# ragweed [12] = test: Test C postemergence; assay type: in vivo, Ambrosia artemisiifolia; conditions: 125 g ai/ha, postemergence, 10 days; 0 to 100 scale, 0 no effect, 100 complete control
# Procedure, shortened: as §1
# corn [13] = test: Test C postemergence; assay type: in vivo, Zea mays; conditions: 10 days
# Procedure, shortened: as §1
# wheat [14] = test: Test C postemergence; assay type: in vivo, Triticum aestivum; conditions: 125 g ai/ha, postemergence, 10 days; 0 to 100 scale, 0 no effect, 100 complete control
# Procedure, shortened: as §1
# blackgrass [15] = test: Test C postemergence; assay type: in vivo, Alopecurus myosuroides; conditions: 10 days
# Procedure, shortened: as §1
# ryegrass, Italian [16] = test: Test C preemergence; assay type: in vivo, Lolium multiflorum; conditions: preemergence, 0 to 100 scale (0 no effect, 100 complete control)
# Procedure, shortened: as §1
# barnyardgrass [17] = test: Test C postemergence; assay type: in vivo, Echinochloa crusgalli; conditions: 10 days
# Procedure, shortened: as §1
# barnyardgrass [18] = test: Test C preemergence; assay type: in vivo, Echinochloa crusgalli; conditions: 0 to 100 scale (0 no effect, 100 complete control); for Plant response rating, Barnyardgrass: Preemergence, 500 g ai/ha, visual rating after 10 days; for Barnyardgrass plant response rating: Test C, preemergence, 125 g ai/ha
# Procedure, shortened: as §1
# rice = test: Test D flooded paddy test; assay type: in vivo, Oryza sativa; conditions: 250 g ai/ha, applied to paddy water, visual rating after 13 to 14 days, scale 0 to 100 (0 no effect, 100 complete control)
# Procedure, shortened: as §2
# kochia [19] = test: Test C postemergence; assay type: in vivo, Bassia scoparia; conditions: 125 g ai/ha, postemergence, 10 days; 0 to 100 scale, 0 no effect, 100 complete control
# Procedure, shortened: as §1
# soybean [20] = test: Test C preemergence; assay type: in vivo, Glycine max; conditions: preemergence, 0 to 100 scale (0 no effect, 100 complete control)
# Procedure, shortened: as §1
# barnyardgrass [21] = test: Test D flooded paddy test; assay type: in vivo, Echinochloa crus-galli; conditions: 250 g ai/ha, applied to paddy water, visual rating after 13 to 14 days, scale 0 to 100 (0 no effect, 100 complete control)
# Procedure, shortened: as §2
# oat, wild [22] = test: Test C postemergence; assay type: in vivo, Avena fatua; conditions: 125 g ai/ha, postemergence, 10 days; 0 to 100 scale, 0 no effect, 100 complete control
# Procedure, shortened: as §1
# ragweed [23] = test: Test C preemergence; assay type: in vivo, Ambrosia artemisiifolia; conditions: preemergence, 0 to 100 scale (0 no effect, 100 complete control)
# Procedure, shortened: as §1
# [24] = 125 g ai/ha, postemergence, 0 to 100 scale, 0 no effect, 100 complete control
# [25] = Postemergence, 500 g ai/ha, visual 0 to 100 scale (0 no effect, 100 complete control)
structure (smiles),measurement,setting,value
COc1ccc(-n2cnc(C(C)(C)O)n2)cc1C(=O)N1C[C@H](C)Oc2c(C)cccc21 [Compound 280],"Plant response rating, Ryegrass, Italian","ryegrass, Italian [1]",90
same,"Plant response rating, Ducksalad (Flood)",ducksalad,70
same,Wheat plant response rating,wheat [2]; 500 g ai/ha,90
same,Wheat plant response rating,"wheat [2]; Test C, 125 g ai/ha",70
same,"Plant response rating, Galium",galium; [24],100
same,"Plant response rating, Galium",galium; [25],100
same,"Plant response rating, Pigweed, Palmer","pigweed, palmer [3]",70
same,"Plant response rating, Sedge, Umbrella (Flood)","sedge, umbrella",95
same,"Plant response rating, Foxtail, Green",green foxtail [4]; [24],60
same,"Plant response rating, Foxtail, Green",green foxtail [4]; [25],90
same,"Oat, Wild plant response rating","oat, wild [5]; 500 g ai/ha",90
same,"Oat, Wild plant response rating","oat, wild [5]; Test C, 125 g ai/ha",60
same,Corn plant response rating,corn [6]; 500 g ai/ha,60
same,Corn plant response rating,"corn [6]; Test C, 125 g ai/ha",30
same,"Plant response rating, Soybean",soybean [7],100
same,"Plant response rating, Horseweed",horseweed; [24],30
same,"Plant response rating, Horseweed",horseweed; [25],60
same,"Pigweed, Palmer plant response rating","pigweed, palmer [8]; 500 g ai/ha",100
same,"Pigweed, Palmer plant response rating","pigweed, palmer [8]; Test C, 125 g ai/ha",100
same,Kochia plant response rating,kochia [9]; 500 g ai/ha,100
same,Kochia plant response rating,"kochia [9]; Test C, 125 g ai/ha",90
same,"Plant response rating, Blackgrass",blackgrass [10],80
same,Blackgrass plant response rating,blackgrass [10],70
same,"Foxtail, Green plant response rating",green foxtail [11]; 500 g ai/ha,100
same,"Foxtail, Green plant response rating","green foxtail [11]; Test C, 125 g ai/ha",100
same,"Plant response rating, Ragweed",ragweed [12],70
same,"Plant response rating, Corn",corn [13]; [24],90
same,"Plant response rating, Corn",corn [13]; [25],90
same,"Plant response rating, Wheat",wheat [14],80
same,"Plant response rating, Blackgrass",blackgrass [15]; [24],80
same,"Plant response rating, Blackgrass",blackgrass [15]; [25],100
same,"Ryegrass, Italian plant response rating","ryegrass, Italian [16]; 500 g ai/ha",90
same,"Ryegrass, Italian plant response rating","ryegrass, Italian [16]; Test C, 125 g ai/ha",90
same,"Plant response rating, Barnyardgrass",barnyardgrass [17]; [24],50
same,"Plant response rating, Barnyardgrass",barnyardgrass [17]; [25],90
same,"Plant response rating, Barnyardgrass",barnyardgrass [18],100
same,Barnyardgrass plant response rating,barnyardgrass [18],100
same,"Plant response rating, Rice (Flood)",rice,20
same,"Plant response rating, Kochia",kochia [19],60
same,Soybean plant response rating,soybean [20]; 500 g ai/ha,100
same,Soybean plant response rating,"soybean [20]; Test C, 125 g ai/ha",90
same,"Plant response rating, Barnyardgrass (Flood)",barnyardgrass [21],25
same,"Plant response rating, Oat, Wild","oat, wild [22]",80
same,Ragweed plant response rating,ragweed [23]; 500 g ai/ha,100
same,Ragweed plant response rating,"ragweed [23]; Test C, 125 g ai/ha",90
CCc1ncn(-c2ccc(OC)c(C(=S)N3C[C@H](C)Oc4c(C)cccc43)c2)n1 [Compound 271],"Plant response rating, Ryegrass, Italian","ryegrass, Italian [1]",60
same,"Plant response rating, Ducksalad (Flood)",ducksalad,85
same,Wheat plant response rating,wheat [2]; 500 g ai/ha,80
same,Wheat plant response rating,"wheat [2]; Test C, 125 g ai/ha",20
same,"Plant response rating, Galium",galium; [24],90
same,"Plant response rating, Galium",galium; [25],100
same,"Plant response rating, Pigweed, Palmer","pigweed, palmer [3]",90
same,"Plant response rating, Sedge, Umbrella (Flood)","sedge, umbrella",100
same,"Plant response rating, Foxtail, Green",green foxtail [4]; [24],90
same,"Plant response rating, Foxtail, Green",green foxtail [4]; [25],90
same,"Oat, Wild plant response rating","oat, wild [5]; 500 g ai/ha",80
same,"Oat, Wild plant response rating","oat, wild [5]; Test C, 125 g ai/ha",30
same,Corn plant response rating,corn [6]; 500 g ai/ha,0
same,Corn plant response rating,"corn [6]; Test C, 125 g ai/ha",0
same,"Plant response rating, Soybean",soybean [7],100
same,"Plant response rating, Horseweed",horseweed; [24],50
same,"Plant response rating, Horseweed",horseweed; [25],90
same,"Pigweed, Palmer plant response rating","pigweed, palmer [8]; 500 g ai/ha",100
same,"Pigweed, Palmer plant response rating","pigweed, palmer [8]; Test C, 125 g ai/ha",100
same,Kochia plant response rating,kochia [9]; 500 g ai/ha,100
same,Kochia plant response rating,"kochia [9]; Test C, 125 g ai/ha",30
same,"Plant response rating, Blackgrass",blackgrass [10],60
same,Blackgrass plant response rating,blackgrass [10],20
same,"Foxtail, Green plant response rating",green foxtail [11]; 500 g ai/ha,100
same,"Foxtail, Green plant response rating","green foxtail [11]; Test C, 125 g ai/ha",100
same,"Plant response rating, Ragweed",ragweed [12],50
same,"Plant response rating, Corn",corn [13]; [24],50
same,"Plant response rating, Corn",corn [13]; [25],90
same,"Plant response rating, Wheat",wheat [14],70
same,"Plant response rating, Blackgrass",blackgrass [15]; [24],70
same,"Plant response rating, Blackgrass",blackgrass [15]; [25],90
same,"Ryegrass, Italian plant response rating","ryegrass, Italian [16]; 500 g ai/ha",90
same,"Ryegrass, Italian plant response rating","ryegrass, Italian [16]; Test C, 125 g ai/ha",80
same,"Plant response rating, Barnyardgrass",barnyardgrass [17]; [24],70
same,"Plant response rating, Barnyardgrass",barnyardgrass [17]; [25],90
same,"Plant response rating, Barnyardgrass",barnyardgrass [18],100
same,Barnyardgrass plant response rating,barnyardgrass [18],100
same,"Plant response rating, Rice (Flood)",rice,10
same,"Plant response rating, Kochia",kochia [19],60
same,Soybean plant response rating,soybean [20]; 500 g ai/ha,100
same,Soybean plant response rating,"soybean [20]; Test C, 125 g ai/ha",70
same,"Plant response rating, Barnyardgrass (Flood)",barnyardgrass [21],0
same,"Plant response rating, Oat, Wild","oat, wild [22]",80
same,Ragweed plant response rating,ragweed [23]; 500 g ai/ha,100
same,Ragweed plant response rating,"ragweed [23]; Test C, 125 g ai/ha",10
